Experimental data: publication PMC8320603 (Current Research in Toxicology, 2021)
Read-outs that look alike come from different tables or passages of the source.

What was measured:
CYP2D6 = CYP2D6 (Homo sapiens, UniProt P10635); test: CYP screening of gefitinib and erlotinib with human pooled supersomes; assay type: in vitro ADME; conditions: 10 µM
CYP1A2 = biological target: T1, CYP1A2 (Homo sapiens, UniProt P05177); test: as above; assay type: in vitro ADME; conditions: 10 µM, at 60 min
T1 sequence (P05177 1-516): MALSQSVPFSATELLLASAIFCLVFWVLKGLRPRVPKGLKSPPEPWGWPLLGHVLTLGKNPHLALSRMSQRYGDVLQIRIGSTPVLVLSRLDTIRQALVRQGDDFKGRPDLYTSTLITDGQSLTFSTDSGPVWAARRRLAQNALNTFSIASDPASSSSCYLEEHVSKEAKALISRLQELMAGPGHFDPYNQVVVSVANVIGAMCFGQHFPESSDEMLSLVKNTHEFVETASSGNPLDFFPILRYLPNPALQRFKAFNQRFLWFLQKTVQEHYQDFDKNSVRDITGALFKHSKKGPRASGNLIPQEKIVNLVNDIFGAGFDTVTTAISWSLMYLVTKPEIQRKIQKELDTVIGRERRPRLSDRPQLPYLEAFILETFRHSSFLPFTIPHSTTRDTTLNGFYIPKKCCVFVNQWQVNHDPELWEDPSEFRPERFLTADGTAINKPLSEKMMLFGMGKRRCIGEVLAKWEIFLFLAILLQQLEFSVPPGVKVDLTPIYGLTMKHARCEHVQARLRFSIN

plasma proteins [1] = test: Human plasma rapid equilibrium dialysis; assay type: in vitro ADME; conditions: pooled human plasma, 4 h of shaking, 10 µM, monitored drug alone
plasma proteins [2] = conditions: cited from earlier work
CYP3A4 = CYP3A4 (Homo sapiens, UniProt P08684); conditions: supersomes, 10 µM, at 60 min
[3] = test system: cryopreserved pooled human primary hepatocytes
[4] = 4 h, 10 µM each, monitored drug + Flx
[5] = 4 h, 10 µM each, monitored drug + Flx + Los
[6] = 4 h, 10 µM each, monitored drug + Los
[7] = 4 h incubation, 10 µM, monitored drug alone
[8] = 4 h, 10 µM each, monitored drug + Erl
[9] = 4 h, 10 µM each, monitored drug + Gef

CYP2D6, sequence (P10635 whole entry): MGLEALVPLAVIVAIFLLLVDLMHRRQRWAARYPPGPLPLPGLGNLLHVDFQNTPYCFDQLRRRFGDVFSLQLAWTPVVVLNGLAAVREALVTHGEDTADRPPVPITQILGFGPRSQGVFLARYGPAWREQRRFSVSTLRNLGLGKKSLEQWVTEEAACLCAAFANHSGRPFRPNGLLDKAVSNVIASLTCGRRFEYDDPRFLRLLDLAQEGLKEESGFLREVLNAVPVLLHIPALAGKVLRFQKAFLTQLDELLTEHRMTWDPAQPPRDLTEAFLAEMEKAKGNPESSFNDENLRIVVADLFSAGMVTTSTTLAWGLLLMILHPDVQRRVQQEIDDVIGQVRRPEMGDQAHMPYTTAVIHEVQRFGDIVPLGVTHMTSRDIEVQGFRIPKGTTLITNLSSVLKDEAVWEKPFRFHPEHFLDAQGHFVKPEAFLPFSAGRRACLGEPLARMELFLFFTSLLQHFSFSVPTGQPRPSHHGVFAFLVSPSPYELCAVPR
CYP3A4, sequence (P08684 whole entry): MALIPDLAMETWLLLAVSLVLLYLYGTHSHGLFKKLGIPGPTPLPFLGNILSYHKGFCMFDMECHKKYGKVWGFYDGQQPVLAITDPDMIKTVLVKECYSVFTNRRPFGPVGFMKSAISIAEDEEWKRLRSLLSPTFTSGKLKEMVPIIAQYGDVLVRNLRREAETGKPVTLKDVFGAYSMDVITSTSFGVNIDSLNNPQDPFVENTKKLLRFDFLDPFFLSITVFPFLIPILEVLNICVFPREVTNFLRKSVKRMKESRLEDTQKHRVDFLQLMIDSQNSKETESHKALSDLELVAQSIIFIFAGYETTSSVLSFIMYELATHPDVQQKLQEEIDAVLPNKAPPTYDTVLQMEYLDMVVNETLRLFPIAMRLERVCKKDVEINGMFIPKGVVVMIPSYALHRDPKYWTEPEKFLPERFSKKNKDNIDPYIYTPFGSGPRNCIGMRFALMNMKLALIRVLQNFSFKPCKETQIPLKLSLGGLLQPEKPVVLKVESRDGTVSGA

Compound | metabolism by CYP2D6 (CYP2D6; supersomes, at 60 min) | metabolism by CYP1A2 (CYP1A2) | RED Protein Binding, Binding (%) (plasma proteins [1]) | plasma protein binding, % bound (plasma proteins [2]; literature value ref Christiansen et al., 2009) [%] | metabolism by CYP3A4 (CYP3A4) | Parent remain (%) [3, 4] [%] | Parent remain (%) [3, 5] [%] | Parent remain (%) [3, 6] [%] | Parent remain (%) [3, 7] [%] | plasma protein binding, % bound (plasma proteins [2]; literature value ref Van Harten 1993) [%] | Parent remain (%) [3, 8] [%] | Parent remain (%) ([3]; 4 h, 10 µM each, monitored drug + Erl + Los) | Parent remain (%) [3, 9] [%] | Parent remain (%) ([3]; 4 h, 10 µM each, monitored drug + Gef + Los) | drug remaining (CYP2D6; CYP2D6 supersomes) | plasma protein binding, % bound (plasma proteins [2]; literature value ref Li et al., 2006) | plasma protein binding, % bound (plasma proteins [2]; literature value ref Sica et al., 2005) | Parent remain (%) ([3]; 4 h, 10 µM each, monitored drug + Erl + Flx) | Parent remain (%) ([3]; 4 h, 10 µM each, monitored drug + Gef + Flx)
C#Cc1cccc(Nc2ncnc3cc(OCCOC)c(OCCOC)cc23)c1 [Erlotinib] | significantly metabolized | significantly metabolized | 96 ± 0 | 95 | significantly metabolized | 75 ± 3 | 86 ± 9 | 63 ± 2 | 62 ± 13 | – | – | – | – | – | – | – | – | – | –
CNCCC(Oc1ccc(C(F)(F)F)cc1)c1ccccc1 (stereo not drawn) [Fluoxetine] | – | – | 95 ± 1 | – | – | – | – | – | 75 ± 9 | 95 | 102 ± 1 | 121 ± 3 | 87 ± 10 | 122 ± 16 | – | – | – | – | –
COc1cc2ncnc(Nc3ccc(F)c(Cl)c3)c2cc1OCCCN1CCOCC1 [Gefitinib] | – | – | > 95 | – | – | 72 ± 10 | 96 ± 4 | 58 ± 3 | 65 ± 2 | – | – | – | – | – | less than 80% | ~ 97% | – | – | –
CCCCc1nc(Cl)c(CO)n1Cc1ccc(-c2ccccc2-c2nn[nH]n2)cc1 [Losartan] | – | – | > 95 | – | – | – | – | – | 77 ± 6 | – | 89 ± 10 | – | 89 ± 4 | – | – | – | greater than 98% | 99 ± 4 | 112 ± 13
